Tested on: LNCaP cells expressing ARR2PB-FireflyLuc and CMV-RenillaLuc
Experiment: LNCaP ARR2PB-FireflyLuc reporter assay, antagonist mode;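 note: IC50 bins in nM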
Type: cell-based
Details: Homo sapiens, LNCaP, 48 h, +0.5 nM DHT, 48 h at 37° C., read-out: LNCap Antagonist Archive: IC50
Description: LNCaP cells expressing ARR2PB-FireflyLuc and CMV-RenillaLuc were treated with indicated concentrations of test compounds, enzalutamide (negative control), or DHT (positive control)+/−0.5 nM DHT for 48 h at 37° C. Fluorescent signals were read with the ImageXpress Micro Confocal System. Remaining activity (antagonist mode) was calculated as % Remaining Activity=100×[(ReadSample−LCave)/(HCave−LCave)] where HC is cells treated with 0.5 nM DHT only and LC is cells treated with 10 uM enzalutamide+0.5 nM DHT. Activation (agonist mode) was calculated as % Activation=100×[(ReadSample−LCave)/(HCave−LCave)] where HO is cells treated with 1 uM DHT and LC is cells treated with DMSO. Dose response curves and IC50 values were calculated using non-linear regression analysis in XLfit.
The designation “A” indicates an IC50 value of >10 μM, “B” indicates an IC50 value between 1 μM and 10 μM; “C” indicates an IC50 value between 100 nM and 1 μM; and “D” indicates an IC50 value of less than 100 nM.

SMILES	IC50
COCCNC(=O)c1cc2ccc(F)cc2n1-c1ccc(C#N)cn1 [Example 52, 1-(5-cyanopyridin-2-yl)-6-fluoro-N-(2-methoxyethyl)-1H-indole-2-carboxamide]	> 10000 nM
COCCNC(=O)c1cc2ccc(F)cc2n1-c1ccc(Cl)cn1 [Example 53, 1-(5-chloropyridin-2-yl)-6-fluoro-N-(2-methoxyethyl)-1H-indole-2-carboxamide]	> 10000 nM
COCCNC(=O)c1cc2ccc(F)cc2n1-c1ncccn1 [Example 54, 6-fluoro-N-(2-methoxyethyl)-1-(pyrimidin-2-yl)-1H-indole-2-carboxamide]	> 10000 nM
COCCN(C(=O)c1cc2cccc(Cl)c2[nH]1)c1ccc(C#N)cc1 [Example 55, 7-chloro-N-(4-cyanophenyl)-N-(2-methoxyethyl)-1H-indole-2-carboxamide]	100 to 1000 nM
N#Cc1ccc(N(CC2CC2)C(=O)c2cc3cccc(Cl)c3[nH]2)cc1 [Example 56, 7-chloro-N-(4-cyanophenyl)-N-(cyclopropylmethyl)-1H-indole-2-carboxamide]	100 to 1000 nM
COCCN(C(=O)c1cc2ccc(F)cc2[nH]1)c1ccn(C)n1 [Example 57, 6-fluoro-N-(2-methoxyethyl)-N-(1-methyl-1H-pyrazol-3-yl)-1H-indole-2-carboxamide]	> 10000 nM
O=C(c1cc2cccc(Cl)c2[nH]1)N(c1ccc(F)cc1)C1CCOC1 (centres unmarked) [Example 58, 7-chloro-N-(4-fluorophenyl)-N-(tetrahydrofuran-3-yl)-1H-indole-2-carboxamide]	100 to 1000 nM
CN(C(=O)c1cc2ccc(F)cc2[nH]1)c1ccccc1 [Example 59, 6-fluoro-N-methyl-N-phenyl-1H-indole-2-carboxamide]	100 to 1000 nM
N#Cc1cccc2cc(C(=O)N(CC3CC3)c3ccccn3)[nH]c12 [Example 60, 7-((I1-azaneyl)ethynyl)-N-(cyclopropylmethyl)-N-(pyridin-2-yl)-1H-indole-2-carboxamide]	> 10000 nM
C[C@H]1OCC[C@@H]1NC(=O)c1cc2cccc(Cl)c2[nH]1 [Example 61, 7-chloro-N-[(2R,3S)-2-methyloxolan-3-yl]-1H-indole-2-carboxamide]	100 to 1000 nM
C[C@@H]1OCC[C@@H]1NC(=O)c1cc2cccc(Cl)c2[nH]1 [Example 62, 7-chloro-N-[(2S,3S)-2-methyloxolan-3-yl]-1H-indole-2-carboxamide]	1000 to 10000 nM
CC1(C)CC(NC(=O)c2cc3cccc(Cl)c3[nH]2)CO1 (centres unmarked) [Example 63, 7-chloro-N-(5,5-dimethyloxolan-3-yl)-1H-indole-2-carboxamide]	> 10000 nM
C[C@@H]1COC[C@H]1NC(=O)c1cc2cccc(Cl)c2[nH]1 [Example 64, 7-chloro-N-[(3S,4S)-4-methyloxolan-3-yl]-1H-indole-2-carboxamide]	1000 to 10000 nM
C[C@H]1COC[C@H]1NC(=O)c1cc2cccc(Cl)c2[nH]1 [Example 65, 7-chloro-N-[(3S,4R)-4-methyloxolan-3-yl]-1H-indole-2-carboxamide]	1000 to 10000 nM
CC(C)N(Cc1cnco1)C(=O)c1cc2cccc(C#N)c2[nH]1 [Example 66, 7-cyano-N-isopropyl-N-(1,3-oxazol-5-ylmethyl)-1H-indole-2-carboxamide]	1000 to 10000 nM
CC(C)N(Cc1cnco1)C(=O)c1cc2cccc(Cl)c2[nH]1 [Example 67, 7-chloro-N-isopropyl-N-(1,3-oxazol-5-ylmethyl)-1H-indole-2-carboxamide]	100 to 1000 nM
N#Cc1ccc(NC(=O)c2cc3cccc(Cl)c3[nH]2)cc1 [Example 68, 7-chloro-N-(4-cyanophenyl)-1H-indole-2-carboxamide]	1000 to 10000 nM
O=C(NC1CCCC1)c1cc2cccc(Cl)c2[nH]1 [Example 69, 7-chloro-N-cyclopentyl-1H-indole-2-carboxamide]	> 10000 nM
CN(CC1CCCC1)C(=O)c1cc2cccc(Cl)c2[nH]1 [Example 70, 7-Chloro-N-(cyclopentylmethyl)-N-methyl-1H-indole-2-carboxamide]	1000 to 10000 nM
O=C(c1cc2cccc(Cl)c2[nH]1)N1CCCC1 [Example 71, 7-chloro-2-(pyrrolidine-1-carbonyl)-1H-indole]	> 10000 nM
CN(C(=O)c1cc2cccc(Cl)c2[nH]1)C1CCOCC1 [Example 72, 7-chloro-N-methyl-N-(oxan-4-yl)-1H-indole-2-carboxamide]	> 10000 nM
CN(C(=O)c1cc2cccc(Cl)c2[nH]1)C1CCCOC1 (centres unmarked) [Example 73, 7-chloro-N-methyl-N-(oxan-3-yl)-1H-indole-2-carboxamide]	> 10000 nM

SMILES	IC50
CN(C(=O)c1cc2cccc(Cl)c2[nH]1)C1CCOC(C)(C)C1 (centres unmarked) [Example 74, 7-chloro-N-(2,2-dimethyloxan-4-yl)-N-methyl-1H-indole-2-carboxamide]	1000 to 10000 nM
CN(C(=O)c1cc2cccc(Cl)c2[nH]1)C1CC(C)(C)NC(C)(C)C1 [Example 75, 7-chloro-N-methyl-N-(2,2,6,6-tetramethylpiperidin-4-yl)-1H-indole-2-carboxamide]	> 10000 nM
COCCN(C(=O)c1cc2cccc(Cl)c2[nH]1)c1ccc(C#N)c(C)c1 [Example 76, 7-chloro-N-(4-cyano-3-methylphenyl)-N-(2-methoxyethyl)-1H-indole-2-carboxamide]	1000 to 10000 nM
COCCN(C(=O)c1cc2cccc(Cl)c2[nH]1)c1ccc(C#N)cc1C [Example 77, 7-chloro-N-(4-cyano-2-methylphenyl)-N-(2-methoxyethyl)-1H-indole-2-carboxamide]	> 10000 nM
COCCN(C(=O)c1cc2cccc(Cl)c2[nH]1)c1ccc(C#N)c(F)c1 [Example 78, 7-Chloro-N-(4-cyano-3-fluorophenyl)-N-(2-methoxyethyl)-1H-indole-2-carboxamide]	1000 to 10000 nM
COCCN(C(=O)c1cc2cccc(Cl)c2[nH]1)c1ccc(C#N)cc1F [Example 79, 7-chloro-N-(4-cyano-2-fluorophenyl)-N-(2-methoxyethyl)-1H-indole-2-carboxamide]	1000 to 10000 nM
CC1OCCC1N(C)C(=O)c1cc2cccc(Cl)c2[nH]1 (centres unmarked) [Example 80, 7-chloro-N-methyl-N-(2-methyloxolan-3-yl)-1H-indole-2-carboxamide]	1000 to 10000 nM
CN(C(=O)c1cc2cccc(Cl)c2[nH]1)C1CCCCC1 [Example 81, 7-chloro-N-cyclohexyl-N-methyl-1H-indole-2-carboxamide]	1000 to 10000 nM
CN(C(=O)c1cc2cccc(Cl)c2[nH]1)C12CC(C1)C2 [Example 82, N-[bicyclo[1.1.1]pentan-1-yl]-7-chloro-N-methyl-1H-indole-2-carboxamide]	100 to 1000 nM
N#Cc1ccc(N(C(=O)c2cc3cccc(Cl)c3[nH]2)C2CCOC2)cc1 (centres unmarked) [Example 83, 7-chloro-N-(4-cyanophenyl)-N-(oxolan-3-yl)-1H-indole-2-carboxamide]	< 100 nM
N#Cc1cccc2cc(C(=O)N(c3ccc(F)cc3)C3CCOC3)[nH]c12 (centres unmarked) [Example 84, 7-cyano-N-(4-fluorophenyl)-N-(oxolan-3-yl)-1H-indole-2-carboxamide]	100 to 1000 nM
O=C(c1cc2ccc(F)cc2[nH]1)N(c1ccc(F)cc1)C1CCOC1 (centres unmarked) [Example 85, 6-fluoro-N-(4-fluorophenyl)-N-(tetrahydrofuran-3-yl)-1H-indole-2-carboxamide]	< 100 nM
CN(C(=O)c1cc2cccc(Cl)c2[nH]1)C12CC(C#N)(C1)C2 [Example 86, 7-chloro-N-[3-cyanobicyclo[1.1.1]pentan-1-yl]-N-methyl-1H-indole-2-carboxamide]	1000 to 10000 nM
C[Si](C)(C)CCOCn1c(C(=O)NC23CC(O)(C2)C3)cc2cccc(Cl)c21 [Example 88, 7-chloro-N-(3-hydroxybicyclo[1.1.1]pentan-1-yl)-1-((2-(trimethylsilyl)ethoxy)methyl)-1H-indole-2-carboxamide]	1000 to 10000 nM
O=C(NC12CC(C1)C2)c1cc2cccc(Cl)c2[nH]1 [Example 89, N-[bicyclo[1.1.1]pentan-1-yl]-7-chloro-1H-indole-2-carboxamide]	100 to 1000 nM
COCCN(C(=O)c1cc2cccc(Cl)c2[nH]1)C12CC(C1)C2 [Example 90, N-[bicyclo[1.1.1]pentan-1-yl]-7-chloro-N-(2-methoxyethyl)-1H-indole-2-carboxamide]	1000 to 10000 nM
CN(C(=O)c1cc2ccc(F)cc2[nH]1)C1CC(F)(F)C1 [Example 92, N-(3,3-difluorocyclobutyl)-6-fluoro-N-methyl-1H-indole-2-carboxamide]	100 to 1000 nM
CN(C(=O)c1cc2ccc(F)cc2[nH]1)C12CC(C1)C2 [Example 93, N-[bicyclo[1.1.1]pentan-1-yl]-6-fluoro-N-methyl-1H-indole-2-carboxamide]	100 to 1000 nM
CN(C(=O)c1cc2cccc(C#N)c2[nH]1)C12CC(C1)C2 [Example 94, N-[bicyclo[1.1.1]pentan-1-yl]-7-cyano-N-methyl-1H-indole-2-carboxamide]	1000 to 10000 nM
CN(C(=O)c1cc2ccnc(Cl)c2[nH]1)C12CC(C1)C2 [Example 95, N-[bicyclo[1.1.1]pentan-1-yl]-7-chloro-N-methyl-1H-pyrrolo[2,3-c]pyridine-2-carboxamide]	100 to 1000 nM
COc1nccc2cc(C(=O)N(C)C34CC(C3)C4)[nH]c12 [Example 96, N-[bicyclo[1.1.1]pentan-1-yl]-7-methoxy-N-methyl-1H-pyrrolo[2,3-c]pyridine-2-carboxamide]	1000 to 10000 nM
Cc1ncoc1CN(C)C(=O)c1cc2cccc(Cl)c2[nH]1 [Example 97, 7-chloro-N-methyl-N-[(4-methyl-1,3-oxazol-5-yl)methyl]-1H-indole-2-carboxamide]	> 10000 nM

Source: patent US12012398B2, “Bicyclic compounds as androgen receptor modulators” (NIDO BIOSCIENCES, INC., priority 2021, dated 2024)
